Assay: xn = mol fraction of the nth substance listed, in the solute-free solvent

Clc1ncnc2[nH]ccc12 + C1CCOC1 + CC(C)O
solubility (g/100 g solution)
Conditions | 278.15 K | 283.15 K | 288.15 K | 293.15 K | 298.15 K | 303.15 K | 308.15 K | 313.15 K | 318.15 K | 323.15 K
x2 = 0.1584 | 3.68 | 4.2 | 4.8 | 5.46 | 6.15 | 6.89 | 7.74 | 8.58 | 9.6 | 10.6
x2 = 0.32 | 5.12 | 5.79 | 6.49 | 7.25 | 8.17 | 9.04 | 9.96 | 10.9 | 12 | 13.2
x2 = 0.4848 | 6.63 | 7.38 | 8.22 | 9.03 | 9.99 | 10.9 | 12 | 13.1 | 14.2 | 15.3
x2 = 0.5685 | 7.34 | 8.12 | 8.96 | 9.81 | 10.8 | 11.9 | 12.8 | 14 | 15.1 | 16.3
x2 = 0.6531 | 7.99 | 8.83 | 9.69 | 10.6 | 11.6 | 12.6 | 13.7 | 14.7 | 15.8 | 17
x2 = 0.8247 | 8.95 | 9.82 | 10.7 | 11.6 | 12.6 | 13.5 | 14.6 | 15.7 | 16.7 | 17.9

O=c1[nH]cc(F)c(=O)[nH]1 + CN(C)C=O + C1CCOC1
solubility (g/100 g solution)
Conditions | 283.15 K | 288.15 K | 293.15 K | 298.15 K | 303.15 K | 308.15 K | 313.15 K | 318.15 K | 323.15 K
x2 = 0.1978 | 0.137 | 0.174 | 0.209 | 0.264 | 0.33 | 0.423 | 0.551 | 0.66 | 0.816
x2 = 0.3967 | 0.188 | 0.24 | 0.293 | 0.37 | 0.468 | 0.581 | 0.735 | 0.883 | 1.07
x2 = 0.5967 | 0.283 | 0.352 | 0.434 | 0.533 | 0.653 | 0.814 | 1.01 | 1.24 | 1.51
x2 = 0.7978 | 0.461 | 0.564 | 0.685 | 0.829 | 0.996 | 1.23 | 1.51 | 1.84 | 2.23
